Source: patent US20100323990A1, “SHIP 1 MODULATOR PRODRUGS” (THE UNIVERSITY OF BRITISH COLUMBIA, priority 2006, published 2010)

How the values were obtained:
ΔC2 SHIP = biological target: T1, ΔC2 SHIP (Homo sapiens, UniProt Q92835, DEL725-863); experiment: SHIP enzyme assay with C2 domain deleted SHIP; format: biochemical; details: PI-3,4-P2 20 μM, Compound 100 3 μM, 30 μM IP4
T1 construct: His6; made in house; host or cells: mammalian expression vector pME18S
T1 sequence (Q92835 with tags, fused parts or gaps DEL725-863): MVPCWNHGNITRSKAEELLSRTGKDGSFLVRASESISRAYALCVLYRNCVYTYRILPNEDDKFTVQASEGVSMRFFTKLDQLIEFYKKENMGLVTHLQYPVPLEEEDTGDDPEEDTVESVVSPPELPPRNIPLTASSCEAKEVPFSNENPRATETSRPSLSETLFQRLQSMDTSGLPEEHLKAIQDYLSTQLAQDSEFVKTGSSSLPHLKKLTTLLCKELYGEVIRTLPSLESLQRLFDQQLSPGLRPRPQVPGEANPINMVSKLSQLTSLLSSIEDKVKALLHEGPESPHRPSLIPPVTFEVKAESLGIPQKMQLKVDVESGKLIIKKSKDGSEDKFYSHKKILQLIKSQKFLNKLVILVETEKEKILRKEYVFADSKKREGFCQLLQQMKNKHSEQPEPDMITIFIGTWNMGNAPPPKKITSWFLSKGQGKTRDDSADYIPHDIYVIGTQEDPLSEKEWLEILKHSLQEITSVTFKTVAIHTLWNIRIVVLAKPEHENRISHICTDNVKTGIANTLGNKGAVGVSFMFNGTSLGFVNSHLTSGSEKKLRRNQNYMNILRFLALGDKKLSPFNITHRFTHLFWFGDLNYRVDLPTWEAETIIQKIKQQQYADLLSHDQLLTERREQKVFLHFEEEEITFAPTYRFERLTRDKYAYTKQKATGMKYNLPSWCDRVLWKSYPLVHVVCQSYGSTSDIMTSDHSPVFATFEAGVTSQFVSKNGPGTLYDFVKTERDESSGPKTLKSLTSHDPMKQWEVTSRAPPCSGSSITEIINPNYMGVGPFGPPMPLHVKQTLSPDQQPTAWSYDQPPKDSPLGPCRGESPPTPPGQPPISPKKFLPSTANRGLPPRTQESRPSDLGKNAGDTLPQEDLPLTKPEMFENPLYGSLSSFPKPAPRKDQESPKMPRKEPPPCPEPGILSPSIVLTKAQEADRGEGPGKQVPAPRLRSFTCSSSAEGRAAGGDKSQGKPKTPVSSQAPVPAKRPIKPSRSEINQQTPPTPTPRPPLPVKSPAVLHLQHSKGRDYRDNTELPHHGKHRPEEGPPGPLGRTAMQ
Description: A His6 tagged SHIP ΔC2 domain deletion mutant (deleting residues 725 to 863) in the mammalian expression vector pME18S was generated by a standard PCR-based methodology. An N-terminal His6 C2 domain construct was also generated by PCR inserted into the pET28C bacterial expression vector using EcoRI and NdeI restriction sites.
The allosteric regulation of enzymes has remained under-appreciated primarily because allosteric effectors are not easy to find. The molecular mechanism by which Compound 100 activated SHIP was investigated, first by performing classical enzyme kinetic analysis of its phosphatase activity. Activity measurements were performed with substrate concentrations from 10-100 μM.
The SHIP protein contains a C2 domain located at the carboxyterminal end of its phosphatase domain. […] SHIP lacking its the C2 domain (ΔC2 SHIP) was prepared.

[1] = tested on: 100 protein kinase and phosphatase targets; experiment: Profiling against 100 protein kinase and phosphatase targets (SignalChem); format: biochemical; details: 2 μM final concentration; changes <25% not considered significant
Experimental: Compound profiling activity was undertaken using 100 protein kinase and phosphatase targets by SignalChem (Richmond, BC, Canada. www.signalchem.com) against compound Compound 100 (2 μM final concentration). Protein kinase assays were performed in the presence of 50 μM ATP at 30° C. for 15 min. Protein phosphatase activites were determined using pNPP as substrate and were also performed at 37° C. for 15 min. The activity of the enzymes in the presence of Compound 100 was compared to that in the vehicle control and expressed as a % change in activity relative to that observed in the vehicle control. Changes in activity of <25% were not considered significant. Enzymes affected by Compound 100 are plotted in an expanded graph in FIG. 12B.

SHIP C2 domain = experiment: Protein lipid overlay assay, C2 domain binding to PI-3,4-P2; details: 4 μM Compound 100, 30 min at 23° C.
Experimental: Protein lipid overlay (PLO) assays were performed essentially as described with minor modifications. Lyophilized phosphatidylinositol-3,4-bisphosphate diC16 (PIP2, Echelon Biosciences, Salt Lake City, Utah) was reconstituted in a 2:1.8 solution of methanol and water. PVDF membranes (Millipore, Missisauga, Ont) were initially wetted in methanol for 1 minute, and washed 3×5 min with water, and gently agitated in TBST buffer (20 mM Tris pH 7.5, 0.15 M NaCl (TBS) with 0.05% Tween 20) at 23° C. overnight. Treated membranes were air-dried and dilutions of reconstituted lipids were spotted in 1 μl aliquots to give the indicated amount of PIP2 per membrane spot. Membranes were dried completely and blocked with blocking buffer (3% BSA in TBS with 0.05% NaN3) for 1 h at 23° C. Purified, recombinant C2 domain was diluted into blocking buffer (5 μM final) and treated with 4 μM Compound 100 or EtOH control for 30 min at 23° C. prior to overnight incubation with the PIP2 spotted membranes. […] After washing, bound proteins were detected and quantified on a Li-Cor Odyssey scanner (Lincoln, Nebr.).
Isolated recombinant, His6-tagged C2 domain was expressed and its PI-3,4-P2 binding ability was determined using protein lipid overlay assays. Purified C2 domain was incubated with membrane strips spotted with PI-3,4-P2 and bound protein detected using an anti-His6 antibody. […]

Cc1cc(O)cc2c1[C@]1(C)CCC3C(C)(C)CCC[C@]3(C)[C@H]1C2 (stereo partly drawn) [Compound 100]
enhancement of ΔC2 SHIP activity (ΔC2 SHIP): could not be enhanced
off-target effects on 100 other kinases and phosphatases [1]: minimal off-target effects
binding of C2 domain to PI-3,4-P2 (SHIP C2 domain): inhibited
